In ChEMBL document CHEMBL1155947, “Discovery of a novel series of benzoic acid derivatives as potent and selective human beta3 adrenergic receptor agonists with good oral bioavailability. 3. Phenylethanolaminotetraline (PEAT) skeleton containing biphenyl or biphenyl ether moiety” (J Med Chem, 2008):

How the values were obtained:
[1] = molecular target: Beta-3 adrenergic receptor (Homo sapiens, UniProt P13945); assay: Agonist activity at human cloned beta3 adrenergic receptor expressed in CHO cells assessed as cAMP accumulation; assay type: functional, cell-based
Chain of Beta-3 adrenergic receptor (P13945 whole entry): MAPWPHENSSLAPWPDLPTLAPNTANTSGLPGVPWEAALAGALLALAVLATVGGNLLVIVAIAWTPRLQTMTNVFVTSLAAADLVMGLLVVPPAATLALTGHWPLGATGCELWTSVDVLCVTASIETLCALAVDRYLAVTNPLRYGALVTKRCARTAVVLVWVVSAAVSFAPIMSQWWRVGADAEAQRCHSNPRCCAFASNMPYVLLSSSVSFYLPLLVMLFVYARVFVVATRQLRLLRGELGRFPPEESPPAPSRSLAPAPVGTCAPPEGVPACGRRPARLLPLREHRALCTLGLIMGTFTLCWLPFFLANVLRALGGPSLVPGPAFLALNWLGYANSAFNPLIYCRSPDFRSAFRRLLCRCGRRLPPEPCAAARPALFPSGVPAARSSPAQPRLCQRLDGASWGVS

[2] = organism: Homo sapiens; assay: Ratio of EC50 for human cloned beta-1 adrenergic receptor to EC50 for human cloned beta3 adrenergic receptor
[3] = molecular target: Beta-2 adrenergic receptor (Homo sapiens, UniProt P07550); assay: Agonist activity at human beta2 adrenergic receptor expressed in CHO cells assessed as cAMP accumulation; assay type: functional, cell-based
Chain of Beta-2 adrenergic receptor (P07550 whole entry): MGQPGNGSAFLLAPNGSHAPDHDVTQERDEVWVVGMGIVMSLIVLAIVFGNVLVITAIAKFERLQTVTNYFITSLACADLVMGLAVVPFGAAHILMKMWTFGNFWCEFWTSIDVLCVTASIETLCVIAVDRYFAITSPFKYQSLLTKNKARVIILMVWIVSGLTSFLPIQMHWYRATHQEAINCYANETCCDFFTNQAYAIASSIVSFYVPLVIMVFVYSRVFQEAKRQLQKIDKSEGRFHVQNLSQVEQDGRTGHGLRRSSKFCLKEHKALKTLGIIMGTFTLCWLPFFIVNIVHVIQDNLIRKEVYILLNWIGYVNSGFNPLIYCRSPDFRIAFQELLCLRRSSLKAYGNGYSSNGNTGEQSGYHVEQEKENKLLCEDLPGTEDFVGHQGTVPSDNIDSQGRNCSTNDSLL

[4] = Cmax in dog at 0.2 mg/kg, po by cassette assay; assay type: ADME, organism-based, Canis lupus familiaris; parameters: dose 0.2 mg/kg, route oral; details: in vivo
[5] = AUC (0 to 24 hrs) in dog at 0.2 mg/kg, po by cassette assay; assay type: ADME, organism-based, Canis lupus familiaris; parameters: time < 24 hr, dose 0.2 mg/kg, route oral; details: plasma
[6] = Terminal half life in dog at 0.1 mg/mL, iv by cassette assay; assay type: ADME, organism-based, Canis lupus familiaris; details: in vivo
[7] = Total clearance in dog at 0.1 mg/mL, iv by cassette assay; assay type: ADME, organism-based, Canis lupus familiaris; details: in vivo
[8] = Bioavailability in dog at 0.1 mg/mL, iv by cassette assay; assay type: ADME, organism-based, Canis lupus familiaris; details: in vivo
[9] = molecular target: Beta-1 adrenergic receptor (Homo sapiens, UniProt P08588)
Chain of Beta-1 adrenergic receptor (P08588 whole entry): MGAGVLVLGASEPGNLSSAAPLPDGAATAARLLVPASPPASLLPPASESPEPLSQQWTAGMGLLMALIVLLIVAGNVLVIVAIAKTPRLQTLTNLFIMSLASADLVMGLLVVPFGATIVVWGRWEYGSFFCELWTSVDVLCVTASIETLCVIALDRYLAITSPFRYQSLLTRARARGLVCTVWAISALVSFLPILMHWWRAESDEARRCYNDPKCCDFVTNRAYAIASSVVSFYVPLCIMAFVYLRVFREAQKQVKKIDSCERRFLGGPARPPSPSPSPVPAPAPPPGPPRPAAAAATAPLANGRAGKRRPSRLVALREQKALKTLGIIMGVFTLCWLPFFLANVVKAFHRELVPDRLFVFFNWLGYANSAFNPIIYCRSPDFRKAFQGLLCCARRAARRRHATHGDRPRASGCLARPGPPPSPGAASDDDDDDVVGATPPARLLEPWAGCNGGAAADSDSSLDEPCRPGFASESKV
Description: Agonist activity at human cloned beta-1 adrenergic receptor expressed in CHO cells assessed as cAMP accumulation

[10] = test system: Canis familiaris; assay: Ratio of Cmax for drug to Cmax for 3-[((7S)-7-{[(2R)-2-(3-Chlorophenyl)-2-hydroxyethyl]amino}-5,6,7,8-tetrahydro-2-naphthalenyl)oxy]benzoic acid hydrochloride in dog at 0.1 or 0.20 mg/kg, po by cassette dosing assay; assay type: ADME, organism-based, Canis lupus familiaris; parameters: dose 0.2 mg/kg, route oral; details: in vivo, 0.2 mg/kg
[11] = test system: Canis familiaris; assay: Ratio of AUC for drug to AUC for 3-[((7S)-7-{[(2R)-2-(3-Chlorophenyl)-2-hydroxyethyl]amino}-5,6,7,8-tetrahydro-2-naphthalenyl)oxy]benzoic acid hydrochloride in dog at 0.1 or 0.20 mg/kg, po by cassette dosing assay; assay type: ADME, organism-based, Canis lupus familiaris; parameters: dose 0.2 mg/kg, route oral; details: in vivo, 0.2 mg/kg
[12] = test system: Canis familiaris; assay: Ratio of Cmax for drug to Cmax for 4-((7S)-7-{[(2R)-2-(3-Chlorophenyl)-2-hydroxyethyl]amino}-5,6,7,8-tetrahydro-2-naphthalenyl)benzoic acid hydrochloride in dog at 0.1 or 0.20 mg/kg, po by cassette dosing assay; assay type: ADME, organism-based, Canis lupus familiaris; parameters: dose 0.2 mg/kg, route oral; details: in vivo, 0.2 mg/kg
[13] = test system: Canis familiaris; assay: Ratio of AUC for drug to AUC for 4-((7S)-7-{[(2R)-2-(3-Chlorophenyl)-2-hydroxyethyl]amino}-5,6,7,8-tetrahydro-2-naphthalenyl)benzoic acid hydrochloride in dog at 0.1 or 0.20 mg/kg, po by cassette dosing assay; assay type: ADME, organism-based, Canis lupus familiaris; parameters: dose 0.2 mg/kg, route oral; details: in vivo, 0.2 mg/kg
[14] = Cmax in dog at 0.32 mg/kg, po by cassette assay; assay type: ADME, organism-based, Canis lupus familiaris; parameters: dose 0.32 mg/kg, route oral; details: in vivo
[15] = AUC (0 to 24 hrs) in dog at 0.32 mg/kg, po by cassette assay; assay type: ADME, organism-based, Canis lupus familiaris; parameters: time < 24 hr, dose 0.32 mg/kg, route oral; details: plasma
[16] = Terminal half life in dog at 0.1 mg/kg, iv by cassette assay; assay type: ADME, organism-based, Canis lupus familiaris; parameters: dose 0.1 mg/kg, route intravenous; details: in vivo
[17] = Total clearance in dog at 0.1 mg/kg, iv by cassette assay; assay type: ADME, organism-based, Canis lupus familiaris; parameters: dose 0.1 mg/kg, route intravenous; details: in vivo
[18] = Oral bioavailability in dog at 0.1 mg/kg by cassette assay; assay type: ADME, organism-based, Canis lupus familiaris; details: in vivo

| Compound | EC50 [1] [nM] | Ratio EC50 [2] | EC50 [9] [nM] | also measured |
| --- | --- | --- | --- | --- |
| O=C(O)COc1ccc(-c2ccc3c(c2)C[C@@H](NC[C@H](O)c2cccc(Cl)c2)CC3)cc1 | 5.8 | > 170 | > 1000 | EC50 [3]: > 1000 nM; Cmax [4]: 21.8 ng/mL; AUC(0-t) at 24 h [5]: 197 ng·h/mL; half-life [6]: 1.9 h; clearance [7]: 8.3 mL/min/kg; bioavailability [8]: 48% |
| O=C(O)c1cccc(Oc2ccc3c(c2)C[C@@H](NC[C@H](O)c2ccc(Cl)nc2)CC3)c1 | 4.1 | 34 | 140 | – |
| O=C(O)c1cccc(Oc2ccc3c(c2)C[C@@H](NC[C@H](O)c2ccc(Cl)cc2)CC3)c1 | 4.8 | 69 | 330 | – |
| COc1cc(Oc2ccc3c(c2)C[C@@H](NC[C@H](O)c2cccc(Cl)c2)CC3)cc(C(=O)O)c1 | 5.3 | 168 | 890 | EC50 [3]: > 1000 nM |
| O=C(O)c1ccc(-c2ccc3c(c2)C[C@@H](NC[C@H](O)c2cccc(Cl)c2)CC3)s1 | 2.4 | > 417 | > 1000 | – |
| O=C(O)c1cccnc1Oc1ccc2c(c1)C[C@@H](NC[C@H](O)c1cccc(Cl)c1)CC2 | 49 | > 2 | > 100 | – |
| CCCNc1cc(Oc2ccc3c(c2)C[C@@H](NC[C@H](O)c2cccc(Cl)c2)CC3)cc(C(=O)O)c1 | 0.77 | 224 | 173 | – |
| O=C(O)c1cc(Oc2ccc3c(c2)C[C@@H](NC[C@H](O)c2cccc(Cl)c2)CC3)ccc1Cl | 16 | > 62 | > 1000 | – |
| O=C(O)c1ccc(-c2ccc3c(c2)C[C@@H](NC[C@H](O)c2ccccc2Cl)CC3)cc1 | 38 | 16.3 | 620 | – |
| O=C(O)c1ccc(-c2ccc3c(c2)C[C@@H](NC[C@H](O)c2cccc(Cl)c2)CC3)nc1 | 9.6 | 51 | 490 | – |
| CC(=O)Nc1cc(Oc2ccc3c(c2)C[C@@H](NC[C@H](O)c2cccc(Cl)c2)CC3)cc(C(=O)O)c1 | 1.3 | 277 | 360 | Ratio [10]: 0.1; Ratio AUC [11]: 0.06 |
| O=C(O)c1ccc(-c2ccc3c(c2)C[C@@H](NC[C@H](O)c2cccc(Cl)c2)CC3)cc1 | 2.8 | > 357 | > 1000 | EC50 [3]: > 1000 nM; Cmax [4]: 97.4 ng/mL; AUC(0-t) at 24 h [5]: 1980 ng·h/mL; half-life [6]: 12.2 h; clearance [7]: 1.2 mL/min/kg; bioavailability [8]: 71%; Ratio [12]: 1; Ratio AUC [13]: 1 |
| CN(C)c1cc(Oc2ccc3c(c2)C[C@@H](NC[C@H](O)c2ccc(Cl)nc2)CC3)cc(C(=O)O)c1 | 1.8 | 155 | 270 | – |
| O=C(O)c1ccc(-c2ccc3c(c2)C[C@@H](NC[C@H](O)c2cccnc2)CC3)cc1 | 13 | > 77 | > 1000 | – |
| O=C(O)c1ccc(-c2ccc3c(c2)C[C@@H](NC[C@H](O)c2cccc(Cl)c2)CCC3)cc1 | > 100 | – | > 100 | – |
| O=C(O)COc1cccc(-c2ccc3c(c2)C[C@@H](NC[C@H](O)c2cccc(Cl)c2)CC3)c1 | 10 | > 10 | > 100 | – |
| O=C(O)c1ccc(-c2ccc3c(c2)C[C@@H](NC[C@H](O)c2ccc(Cl)cc2)CC3)cc1F | 0.81 | 802 | 650 | – |
| O=C(O)c1ccc(Oc2ccc3c(c2)C[C@@H](NC[C@H](O)c2cccc(Cl)c2)CC3)s1 | 5.7 | 117 | 670 | EC50 [3]: > 1000 nM |
| Cc1cc(C(=O)O)ccc1-c1ccc2c(c1)C[C@@H](NC[C@H](O)c1ccc(Cl)cc1)CC2 | 2 | 400 | 800 | Ratio [12]: 0.72; Ratio AUC [13]: 0.64 |
| O=C(O)c1cc(NC2CCCCC2)cc(Oc2ccc3c(c2)C[C@@H](NC[C@H](O)c2cccc(Cl)c2)CC3)c1 | 0.78 | 88 | 69 | – |
| O=C(O)c1ccc(Oc2ccc3c(c2)C[C@@H](NC[C@H](O)c2cccc(Cl)c2)CC3)nc1 | 1.47 | 50 | 70 | EC50 [3]: > 1000 nM; Cmax [14]: 49 ng/mL; AUC(0-t) at 24 h [15]: 320 ng·h/mL; half-life [6]: 2.8 h; clearance [7]: 10.8 mL/min/kg; bioavailability [8]: 61% |

| Compound | EC50 [1] [nM] | Ratio EC50 [2] | EC50 [9] [nM] | also measured |
| --- | --- | --- | --- | --- |
| O=C(O)c1ccc(-c2ccc3c(c2)C[C@@H](NC[C@H](O)c2ccc(Cl)cc2)CC3)c(F)c1 | 1.4 | 700 | 980 | Ratio [12]: 1.13; Ratio AUC [13]: 1.01 |
| Cc1ccc([C@@H](O)CN[C@H]2CCc3ccc(-c4ccc(C(=O)O)cc4)cc3C2)cc1 | 0.79 | > 1260 | > 1000 | Ratio [12]: 1.06; Ratio AUC [13]: 0.77 |
| O=C(O)c1cc(NC2CCOCC2)cc(Oc2ccc3c(c2)C[C@@H](NC[C@H](O)c2cccc(Cl)c2)CC3)c1 | 1 | 340 | 340 | Ratio [10]: 0.06; Ratio AUC [11]: 0.02 |
| Cc1ccc(Oc2ccc3c(c2)C[C@@H](NC[C@H](O)c2cccc(Cl)c2)CC3)cc1C(=O)O | 9 | > 111 | > 1000 | – |
| N#Cc1ccc([C@@H](O)CN[C@H]2CCc3ccc(-c4ccc(C(=O)O)cc4)cc3C2)cc1 | 28 | > 36 | > 1000 | – |
| O=C(O)c1ccc(-c2ccc3c(c2)C[C@@H](NC[C@H](O)c2ccc(C(F)(F)F)cc2)CC3)cc1 | 3.5 | 221 | 775 | EC50 [3]: > 1000 nM |
| O=C(O)COc1cccc(Oc2ccc3c(c2)C[C@@H](NC[C@H](O)c2cccc(Cl)c2)CC3)c1 | 22 | > 4.5 | > 100 | – |
| O=C(O)c1cccc(Oc2ccc3c(c2)C[C@@H](NC[C@H](O)c2cccnc2)CC3)c1 | 20 | > 5 | > 100 | Ratio [10]: 0.5; Ratio AUC [11]: 0.32 |
| O=C(O)c1ccc(-c2ccc3c(c2)C[C@@H](NC[C@H](O)c2ccc(Cl)nc2)CC3)cc1 | 0.85 | > 1260 | 200 | EC50 [3]: > 1000 nM; Ratio [12]: 0.73; Ratio AUC [13]: 0.53 |
| COc1cc(-c2ccc3c(c2)C[C@@H](NC[C@H](O)c2ccc(Cl)cc2)CC3)ccc1C(=O)O | 0.78 | > 1280 | > 1000 | Ratio [12]: 0.62; Ratio AUC [13]: 0.53 |
| O=C(O)COc1ccc(Oc2ccc3c(c2)C[C@@H](NC[C@H](O)c2cccc(Cl)c2)CC3)cc1 | 24 | > 4.2 | > 100 | – |
| O=C(O)c1cccc(Oc2ccc3c(c2)C[C@@H](NC[C@H](O)c2cccc(Cl)c2)CCC3)c1 | 4.5 | 35 | 160 | EC50 [3]: > 1000 nM; Cmax [14]: 65.7 ng/mL; AUC(0-t) at 24 h [15]: 538 ng·h/mL; half-life [6]: 3 h; clearance [7]: 6.8 mL/min/kg; bioavailability [8]: 69% |
| COc1ccc(Oc2ccc3c(c2)C[C@@H](NC[C@H](O)c2cccc(Cl)c2)CC3)cc1C(=O)O | 6 | > 166 | > 1000 | EC50 [3]: > 1000 nM |
| Cc1cc(-c2ccc3c(c2)C[C@@H](NC[C@H](O)c2ccc(Cl)cc2)CC3)ccc1C(=O)O | 1.8 | 458 | 825 | – |
| O=C(O)c1ccc(Oc2ccc3c(c2)C[C@@H](NC[C@H](O)c2cccc(Cl)c2)CC3)cc1 | 37 | > 2.7 | > 100 | – |
| CC(C)Oc1cc(-c2ccc3c(c2)C[C@@H](NC[C@H](O)c2ccc(Cl)cc2)CC3)ccc1C(=O)O | 0.7 | 443 | 310 | – |
| O=C(O)c1ccc(-c2ccc3c(c2)C[C@@H](NC[C@H](O)c2ccc(Cl)c(Cl)c2)CC3)cc1 | 33 | > 30 | > 1000 | – |
| CN(C)c1cc(Oc2ccc3c(c2)C[C@@H](NC[C@H](O)c2cccc(Cl)c2)CC3)cc(C(=O)O)c1 | 3.2 | > 312 | > 1000 | EC50 [3]: > 1000 nM; Cmax [4]: 189 ng/mL; AUC(0-t) at 24 h [5]: 1470 ng·h/mL; Ratio [10]: 1.18; Ratio AUC [11]: 0.83; half-life [16]: 3.94 h; clearance [17]: 2.38 mL/min/kg; bioavailability [18]: > 95% |
| Nc1cc(Oc2ccc3c(c2)C[C@@H](NC[C@H](O)c2cccc(Cl)c2)CC3)cc(C(=O)O)c1 | 3.2 | 150 | 480 | Ratio [10]: 0.26; Ratio AUC [11]: 0.2 |
| O=C(O)c1ccc(Oc2ccc3c(c2)C[C@@H](NC[C@H](O)c2cccc(Cl)c2)CCC3)cc1 | > 100 | – | > 100 | – |
| O=C(O)c1cccc(-c2ccc3c(c2)C[C@@H](NC[C@H](O)c2cccc(Cl)c2)CC3)c1 | 29 | > 3.4 | > 100 | – |
